Laboratory results reported in US11866720B2, “Transgenic or non-transgenic plants with mutated protoporphyrinogen oxidase having increased tolerance to herbicides” (priority 2013, dated 2024).
“And” between values parts separate entries of the source, which are not always exact repeats. Identical values can stand only once. Like-named read-outs stand apart in the source and are kept apart here.

Key:
[1] = tested on: transgenic soybean expressing mutated PPO; assay: Soybean segregating T1 individuals, greenhouse spray test (injury 0-9); type: in vivo, Glycine max; conditions: 1 week after treatment
[2] = tested on: transgenic Arabidopsis thaliana plants expressing wildtype or mutated PPO; assay: Germination / growth inhibition assay of transgenic Arabidopsis T2 seeds in 48-well plates; conditions: growth inhibition seven to ten days after seeding
[3] = tested on: transgenic soybean expressing mutated PPO; type: in vivo, Glycine max; conditions: T1 soybean, field, 3 days after treatment; for injury (1-5 point scale): benzoxazin 50 g ai/ha; as to injury (1-5 point scale): key: 1: no obvious damage (no phytotoxicity); 2: minor amount of leaf damage, plant will survive; 3: moderate amount of leaf damage, plant will survive; 4: severe amount of leaf damage, plant will survive; 5: no surviving plants - all plants dead/dying
[4] = transgenic Arabidopsis AMATU_PPO2_F420I
[5] = transgenic Arabidopsis AMATU_PPO2_F420L
[6] = transgenic Arabidopsis AMATU_PPO2_F420M
[7] = transgenic Arabidopsis AMATU_PPO2_R128A_F420I
[8] = transgenic Arabidopsis AMATU_PPO2_R128A_F420L
[9] = transgenic Arabidopsis AMATU_PPO2_R128A_F420M
[10] = transgenic Arabidopsis AMATU_PPO2_R128L
[11] = transgenic Arabidopsis AMATU_PPO2_dG210
[12] = transgenic Arabidopsis AMATU_PPO2_dG210_R128L
[13] = transgenic Arabidopsis AMATU_PPO2_wt

## C#CCN1C(=O)COc2cc(F)c(N3C(=O)C4=C(CCCC4)C3=O)cc21 [Flumioxazin, flumioxazin]
[1]; SDS10791 AmtuPPX2L R128A_F420I, Flumioxazin 150 g ai/ha
  injury (0-9 point scale): 3 (5×) and 1 (3×)
[1]; SDS-10642 AmtuPPX2L R128A_F420L, Flumioxazin 150 g ai/ha
  injury (0-9 point scale): 3 (3×) and 2 (2×) and 1 (2×) and 9
[1]; SDS-10648 AmtuPPX2L R128A_F420I, Flumioxazin 150 g ai/ha
  injury (0-9 point scale): 9 (5×) and 5 (3×)
[1]; SDS-10652 AmtuPPX2L L397D_F420V, Flumioxazin 150 g ai/ha
  injury (0-9 point scale): 9 and 6 (3×) and 5 (2×) and 4 (2×)
[1]; SDS-10787 AmtuPPX2L R128A_F420L, Flumioxazin 150 g ai/ha
  injury (0-9 point scale): 9 (2×) and 5 (4×) and 4 (2×)
[1]; SDS-10985 AmtuPPX2L R128A_F420M, Flumioxazin 150 g ai/ha
  injury (0-9 point scale): 9 (3×) and 6 (2×) and 4 (2×) and 5
[1]; SDS-10990 AmtuPPX2L R128A_F420M, Flumioxazin 150 g ai/ha
  injury (0-9 point scale): 6 (5×) and 5 (2×) and 9
[1]; SDS-11034 AmtuPPX2L R128A_F420V, Flumioxazin 150 g ai/ha
  injury (0-9 point scale): 5 (3×) and 4 and 6 (2×) and 9 and 3
[1]; wild type, Flumioxazin 150 g ai/ha
  injury (0-9 point scale): 9

## CS(=O)(=O)NC(=O)c1cc(Oc2ccc(C(F)(F)F)cc2Cl)ccc1[N+](=O)[O-] [Fomesafen, fomesafen]
[2]; [4]
  Relative tolerance rate as compared to a non-transgenic Arabidopsis plant (non-transgenic = 1.0): 18
[2]; [5]
  Relative tolerance rate as compared to a non-transgenic Arabidopsis plant (non-transgenic = 1.0): 23
[2]; [6]
  Relative tolerance rate as compared to a non-transgenic Arabidopsis plant (non-transgenic = 1.0): 29
[2]; [7]
  Relative tolerance rate as compared to a non-transgenic Arabidopsis plant (non-transgenic = 1.0): 29
[2]; [8]
  Relative tolerance rate as compared to a non-transgenic Arabidopsis plant (non-transgenic = 1.0): 29
[2]; [9]
  Relative tolerance rate as compared to a non-transgenic Arabidopsis plant (non-transgenic = 1.0): 29
[2]; [10]
  Relative tolerance rate as compared to a non-transgenic Arabidopsis plant (non-transgenic = 1.0): 27
[2]; [11]
  Relative tolerance rate as compared to a non-transgenic Arabidopsis plant (non-transgenic = 1.0): 29
[2]; [12]
  Relative tolerance rate as compared to a non-transgenic Arabidopsis plant (non-transgenic = 1.0): 29
[2]; [13]
  Relative tolerance rate as compared to a non-transgenic Arabidopsis plant (non-transgenic = 1.0): 19
[1]; SDS10791 AmtuPPX2L R128A_F420I, Fomesafen 600 g ai/ha
  injury (0-9 point scale): 6 and 3 (2×) and 1 (3×) and 4 and 2
[1]; SDS-10642 AmtuPPX2L R128A_F420L, Fomesafen 600 g ai/ha
  injury (0-9 point scale): 0 (4×) and 1 (4×)
[1]; SDS-10648 AmtuPPX2L R128A_F420I, Fomesafen 600 g ai/ha
  injury (0-9 point scale): 5 and 3 (6×) and 4
[1]; SDS-10652 AmtuPPX2L L397D_F420V, Fomesafen 600 g ai/ha
  injury (0-9 point scale): 1 (2×) and 2 (2×) and 0 (3×) and 4
[1]; SDS-10787 AmtuPPX2L R128A_F420L, Fomesafen 600 g ai/ha
  injury (0-9 point scale): 1 (2×) and 0 (2×) and 2 (2×) and 5 and 3
[1]; SDS-10985 AmtuPPX2L R128A_F420M, Fomesafen 600 g ai/ha
  injury (0-9 point scale): 3 (3×) and 0 (2×) and 1 (2×) and 5
[1]; SDS-10990 AmtuPPX2L R128A_F420M, Fomesafen 600 g ai/ha
  injury (0-9 point scale): 1 (2×) and 3 and 0 (2×) and 4 and 5 (2×)
[1]; SDS-11034 AmtuPPX2L R128A_F420V, Fomesafen 600 g ai/ha
  injury (0-9 point scale): 2 (2×) and 0 (3×) and 1 (3×)
[1]; wild type, Fomesafen 600 g ai/ha
  injury (0-9 point scale): 5 (4×) and 4 (4×)

## CCOC(=O)C(C)OC(=O)c1cc(Oc2ccc(C(F)(F)F)cc2Cl)ccc1[N+](=O)[O-] (stereo not shown) [Lactofen, lactofen]
[2]; [4]
  Relative tolerance rate as compared to a non-transgenic Arabidopsis plant (non-transgenic = 1.0): 17
[2]; [5]
  Relative tolerance rate as compared to a non-transgenic Arabidopsis plant (non-transgenic = 1.0): 19
[2]; [6]
  Relative tolerance rate as compared to a non-transgenic Arabidopsis plant (non-transgenic = 1.0): 29
[2]; [7]
  Relative tolerance rate as compared to a non-transgenic Arabidopsis plant (non-transgenic = 1.0): 27
[2]; [8]
  Relative tolerance rate as compared to a non-transgenic Arabidopsis plant (non-transgenic = 1.0): 29
[2]; [9]
  Relative tolerance rate as compared to a non-transgenic Arabidopsis plant (non-transgenic = 1.0): 29
[2]; [10]
  Relative tolerance rate as compared to a non-transgenic Arabidopsis plant (non-transgenic = 1.0): 22
[2]; [11]
  Relative tolerance rate as compared to a non-transgenic Arabidopsis plant (non-transgenic = 1.0): 19
[2]; [12]
  Relative tolerance rate as compared to a non-transgenic Arabidopsis plant (non-transgenic = 1.0): 29
[2]; [13]
  Relative tolerance rate as compared to a non-transgenic Arabidopsis plant (non-transgenic = 1.0): 8

## CCOc1cc(Oc2ccc(C(F)(F)F)cc2Cl)ccc1[N+](=O)[O-] [Oxyfluorfen]
[1]; SDS10791 AmtuPPX2L R128A_F420I, Oxyfluorfen 600 g ai/ha
  injury (0-9 point scale): 4 (3×) and 8 and 5 (3×) and 3
[1]; SDS10791 AmtuPPX2L R128A_F420I, Oxyfluorfen 1200 g ai/ha
  injury (0-9 point scale): 9 (2×) and 4 (2×) and 5 (4×)
[1]; SDS-10642 AmtuPPX2L R128A_F420L, Oxyfluorfen 600 g ai/ha
  injury (0-9 point scale): 2 (3×) and 4 and 3 (3×) and 8
[1]; SDS-10648 AmtuPPX2L R128A_F420I, Oxyfluorfen 600 g ai/ha
  injury (0-9 point scale): 5 and 7 and 6 (2×) and 8 (2×) and 9 and 3
[1]; SDS-10648 AmtuPPX2L R128A_F420I, Oxyfluorfen 1200 g ai/ha
  injury (0-9 point scale): 5 (3×) and 9 (4×) and 4
[1]; SDS-10652 AmtuPPX2L L397D_F420V, Oxyfluorfen 600 g ai/ha
  injury (0-9 point scale): 4 (3×) and 5 and 6 (2×) and 9
[1]; SDS-10787 AmtuPPX2L R128A_F420L, Oxyfluorfen 600 g ai/ha
  injury (0-9 point scale): 6 (3×) and 5 (2×) and 8
[1]; SDS-10985 AmtuPPX2L R128A_F420M, Oxyfluorfen 600 g ai/ha
  injury (0-9 point scale): 1 and 3 (3×) and 4 (3×) and 9
[1]; SDS-10985 AmtuPPX2L R128A_F420M, Oxyfluorfen 1200 g ai/ha
  injury (0-9 point scale): 5 (3×) and 4 (3×) and 8 (2×)
[1]; SDS-10990 AmtuPPX2L R128A_F420M, Oxyfluorfen 600 g ai/ha
  injury (0-9 point scale): 4 (4×) and 8 and 3 and 9 and 5
[1]; SDS-10990 AmtuPPX2L R128A_F420M, Oxyfluorfen 1200 g ai/ha
  injury (0-9 point scale): 9 and 5 (5×) and 4 (2×)
[1]; SDS-11034 AmtuPPX2L R128A_F420V, Oxyfluorfen 600 g ai/ha
  injury (0-9 point scale): 4 (3×) and 9 and 5 (3×)
[1]; wild type, Oxyfluorfen 600 g ai/ha
  injury (0-9 point scale): 8 (3×) and 7 (3×) and 9 (2×)

## C1=Cc2ccccc2ON1 [benzoxazin]
[3]; SDS-10562 LTM377-1 AmtuPPX2L_dG210, benzoxazin (50 gai/ha)
  Injury rating (1-5 point scale): 3
[3]; SDS-10562 LTM377-1 AmtuPPX2L_dG210, benzoxazin (100 gai/ha)
  Injury rating (1-5 point scale): 3
[3]; SDS-10566 LTM377-1 AmtuPPX2L_dG210, benzoxazin (50 gai/ha)
  Injury rating (1-5 point scale): 3
[3]; SDS-10566 LTM377-1 AmtuPPX2L_dG210, benzoxazin (100 gai/ha)
  Injury rating (1-5 point scale): 3
[3]; SDS-10648 AmtuPPX2L R128A_F420I
  injury (1-5 point scale): 3
[3]; SDS-10656 LTM377-1 AmtuPPX2L_dG210, benzoxazin (50 gai/ha)
  Injury rating (1-5 point scale): 4
[3]; SDS-10656 LTM377-1 AmtuPPX2L_dG210, benzoxazin (100 gai/ha)
  Injury rating (1-5 point scale): 4
[3]; SDS-10791 AmtuPPX2L R128A_F420I
  injury (1-5 point scale): 2
[3]; SDS-10998 LTM387-1 AmtuPPX2L_R128A_F420V, benzoxazin (50 gai/ha)
  Injury rating (1-5 point scale): 2.5
[3]; SDS-10998 LTM387-1 AmtuPPX2L_R128A_F420V, benzoxazin (100 gai/ha)
  Injury rating (1-5 point scale): 2.5
[3]; SDS-11014 AmtuPPX2L R128A_F420I
  injury (1-5 point scale): 2
[3]; SDS-11034 AmtuPPX2L L397D_F420V
  injury (1-5 point scale): 2
[3]; SDS-11034 LTM387-1 AmtuPPX2L_R128A_F420V, benzoxazin (50 gai/ha)
  Injury rating (1-5 point scale): 2
[3]; SDS-11034 LTM387-1 AmtuPPX2L_R128A_F420V, benzoxazin (100 gai/ha)
  Injury rating (1-5 point scale): 2
[3]; SDS-11035 AmtuPPX2L R128A_F420V
  injury (1-5 point scale): 2
[3]; SDS-11035 LTM387-1 AmtuPPX2L_R128A_F420V, benzoxazin (50 gai/ha)
  Injury rating (1-5 point scale): 2
[3]; SDS-11035 LTM387-1 AmtuPPX2L_R128A_F420V, benzoxazin (100 gai/ha)
  Injury rating (1-5 point scale): 2
[3]; SDS-11052 AmtuPPX2L R128A_F420M
  injury (1-5 point scale): 3
[3]; SDS-11105 LTM387-1 AmtuPPX2L_R128A_F420V, benzoxazin (50 gai/ha)
  Injury rating (1-5 point scale): 3
[3]; SDS-11105 LTM387-1 AmtuPPX2L_R128A_F420V, benzoxazin (100 gai/ha)
  Injury rating (1-5 point scale): 3
[3]; SDS-11110 LTM387-1 AmtuPPX2L_R128A_F420V, benzoxazin (50 gai/ha)
  Injury rating (1-5 point scale): 3
[3]; SDS-11110 LTM387-1 AmtuPPX2L_R128A_F420V, benzoxazin (100 gai/ha)
  Injury rating (1-5 point scale): 3
[3]; Wildtype Jake, benzoxazin (50 gai/ha)
  Injury rating (1-5 point scale): 5
[3]; Wildtype Jake, benzoxazin (100 gai/ha)
  Injury rating (1-5 point scale): 5
[3]; wild type
  injury (1-5 point scale): 5
